According to patent US5366983A, “Use of quaternary ammonium compounds to remove salmonella contamination from meat products” (The Board of Trustees of The University of Arkansas, priority 1992, dated 1994):

Key:
[1] = system: Salmonella typhimurium on chicken skin; experiment: Prevention of attachment of Salmonella on excised chicken skin (Table F5)
Method: To determine the ability of surfactants to inhibit attachment or produce detachment of Salmonella, the following experiment was conducted. A hole was bored into the bottom of a 150 ml specimen cup. Chicken skin was excised from a drum stick and then placed over the cap of the specimen cup, and then the cap was screwed on. S. typhimurium was diluted 1:5000 with PBS or a surfactant. The surfactants were diluted appropriately. The skin was then inoculated with the solution containing the S. typhimurium and the surfactant for 30 minutes at room temperature.
Following incubation, the skin was washed. The rinse water was diluted appropriately in PBS and then plated onto XLD pour plates. The S. typhimurium was counted and reported as CFU/ml. The skin was swabbed so as to remove any remaining S. typhimurium using a nitroellulose lift and the CFU's/ml on the lift were also counted.

[2] = system: Salmonella typhimurium ATCC 14028; experiment: Effect on viability of Salmonella in suspension (Tables D-1 to D-3); format: cell-based; conditions: Table D-1
In short: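 Bactericidal activity against Salmonella measured in suspension; EC50 derived by nonlinear regression of kill versus molar concentration. Na2-EDTA and EGTA dissolved and diluted in 0.04 M PPB; EGTA heated 15 minutes at 80° C., adjusted to pH 7.0 with NaOH, filter-sterilized.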

[3] = system: Salmonella typhimurium TA98; experiment: Salmonella reversion assay, TA98
Method: Test strains TA98 and TA100 were obtained from Bruce N. Ames (University of California, Berkley, Calif.). Mutagenicities were determined both in the absence of and in the presence of a mammalian liver S9 activating system. S9 is the 9000×g supernatant prepared from liver homogenates from Aroclor 1254 stimulated male Sprague Dawley rats. The S9 was purchased from Molecular Toxicology, Inc. (Anapolis, Md.).
Bacterial broth cultures were grown overnight at 37° with shaking in Oxoid Broth #2. For assays in the absence of S9, a 0.5 ml aliquot of 100 mM Sodium Phosphate Buffer, pH 7.4, was added to sterile 13×100 mm capped culture tubes. For assays in the presence of S9, a 0.5 ml aliquot of 10% S9 mix was added. The S9 mix consisted of 8 mM magnesium chloride, 33 mM potassium chloride, 5 mM glucose-6-phosphate, 4 mM NADP, 100 mM sodium phosphate, pH 7.4 and S9 in a concentration of approximately 1.46 mg protein/ml.
The culture tubes were placed in an ice bath and 0.1 ml of the bacterial suspension and 0.1 ml of a DMSO solution of the test compound were added. The mixture was vortexed gently and incubated at 37° for 20 minutes with shaking in a water bath. Molten top agar (2.0 ml) containing 0.5 mM histidine HCl and 0.5 mM biotin were added, and the mixture was vortexed gently and poured onto a minimal glucose plate. After allowing the agar to solidify, the plates were inverted and placed in a 37° incubator in the dark for 48 hours. The revertant (mutant) colonies were counted and the background lawn was examined on all plates. A response that was two times that of the DMSO solvent control was considered a positive response.

[4] = system: Salmonella typhimurium on chicken skin; experiment: Effect of surfactants on Salmonella attached to chicken skin, drumsticks (Tables F1-F4)

CCCCCCCCCCCCCCCC[n+]1ccccc1 [CPC, cetylpyridinium chloride]
CFU/ml on XLD agar [1]: 20 | Nitrocellulose lift (# of colonies) ([1]; skin, 30 minutes at room temperature): 4 # of colonies | bacterial viability ([2]; 20 ug/ml): 1.84 ± 0.087 × 10^8 CFU/ml | bacterial viability ([2]; 22.5 ug/ml): 9.07 ± 2.16 × 10^7 CFU/ml | bacterial viability ([2]; 25 ug/ml): 5.15 ± 1.18 × 10^6 CFU/ml | Revertants/plate ([3]; TA98, +S9, 1 μg/plate): 25 ± 2 Revertants/plate | Revertants/plate ([3]; TA98, +S9, 5 μg/plate): 28 ± 1 Revertants/plate | Revertants/plate ([3]; TA98, +S9, 10 μg/plate): 25 ± 3 Revertants/plate | Revertants/plate ([3]; TA98, +S9, 20 μg/plate): 28 ± 2 Revertants/plate | Revertants/plate ([3]; TA98, +S9, 40 μg/plate): 30 ± 1 Revertants/plate | Revertants/plate ([3]; TA98, +S9, 50 μg/plate): 35 ± 6 Revertants/plate | Revertants/plate ([3]; TA98, -S9, 1 μg/plate): 24 ± 3 Revertants/plate | Revertants/plate ([3]; TA98, -S9, 5 μg/plate): 18 ± 4 Revertants/plate | mutagenicity (in words) ([3]; TA98, absence of S9, low concentrations): nonmutagenic | mutagenicity and cytotoxicity (in words) ([3]; TA98, presence of S9): neither mutagenic nor cytotoxic | Enrichment, chicken legs out of ten ([4]; 0.1%, 4° C.): 8/10 | Rinse H2O ([4]; 0.1%, 4° C.): 0 CFU/ml | Surfactant Solution ([4]; 0.1%, 4° C.): 0 CFU/ml | Swabs, chicken legs producing the notated number of colonies ([4]; 0.1%, 4° C.): 8/10 | Swabs, colonies ([4]; 0.1%, 4° C.): + (1-10) | Wash H2O, chicken legs producing the notated number of colonies ([4]; 0.1%, 4° C.): 8/10 | Wash H2O, colonies ([4]; 0.1%, 4° C.): + (1-10) | Enrichment, chicken legs out of ten ([4]; 0.1%, 25° C.): 0/10 | Rinse H2O ([4]; 0.1%, 25° C.): 0 CFU/ml | Surfactant Solution ([4]; 0.1%, 25° C.): 0 CFU/ml | Swabs, chicken legs producing the notated number of colonies ([4]; 0.1%, 25° C.): 7/10 | Swabs, colonies ([4]; 0.1%, 25° C.): + (1-10) | Wash H2O, chicken legs producing the notated number of colonies ([4]; 0.1%, 25° C.): 8/10 | Wash H2O, colonies ([4]; 0.1%, 25° C.): ++ (11-100) | Enrichment, chicken legs out of ten ([4]; 0.5%, 4° C.): 9/10 | Rinse H2O ([4]; 0.5%, 4° C.): 0 CFU/ml | Surfactant Solution ([4]; 0.5%, 4° C.): 0 CFU/ml | Swabs, chicken legs producing the notated number of colonies ([4]; 0.5%, 4° C.): 9/10 | Swabs, colonies ([4]; 0.5%, 4° C.): + (1-10) | Wash H2O, chicken legs producing the notated number of colonies ([4]; 0.5%, 4° C.): 7/10 | Wash H2O, colonies ([4]; 0.5%, 4° C.): + (1-10) | Enrichment, chicken legs out of ten ([4]; 1.0%, 4° C.): 5/10 | Rinse H2O ([4]; 1.0%, 4° C.): 0 CFU/ml | Surfactant Solution ([4]; 1.0%, 4° C.): 0 CFU/ml | Swabs, chicken legs producing the notated number of colonies ([4]; 1.0%, 4° C.): 5/10 | Swabs, colonies ([4]; 1.0%, 4° C.): + (1-10) | Wash H2O, chicken legs producing the notated number of colonies ([4]; 1.0%, 4° C.): 9/10 | Wash H2O, colonies ([4]; 1.0%, 4° C.): + (1-10) | Enrichment, chicken legs out of ten ([4]; .01%, 25° C.): 10/10 | Rinse H2O ([4]; .01%, 25° C.): + (1-10) | Surfactant Solution ([4]; .01%, 25° C.): 0 CFU/ml | Swabs, chicken legs producing the notated number of colonies ([4]; .01%, 25° C.): 9/10 | Swabs, colonies ([4]; .01%, 25° C.): ++ (11-100) | Wash H2O, chicken legs producing the notated number of colonies ([4]; .01%, 25° C.): 10/10 | Wash H2O, colonies ([4]; .01%, 25° C.): +++ (101-300) | Enrichment, chicken legs out of ten ([4]; .05%, 25° C.): 7/10 | Rinse H2O ([4]; .05%, 25° C.): 0 CFU/ml | Surfactant Solution ([4]; .05%, 25° C.): 0 CFU/ml | Swabs, chicken legs producing the notated number of colonies ([4]; .05%, 25° C.): 9/10 | Swabs, colonies ([4]; .05%, 25° C.): + (1-10) | Wash H2O, chicken legs producing the notated number of colonies ([4]; .05%, 25° C.): 10/10 | Wash H2O, colonies ([4]; .05%, 25° C.): ++ (11-100)
